Assay results as given in patent US20020095001A1, “Methods and compositions for topical treatment of damaged tissue using reactive oxygen metabolite production or release inhibitors” (priority 1999, published 2002).

Tests used:
NADPH oxidase = molecular target: T1, NADPH oxidase (Homo sapiens, UniProt P04839); settings: membrane bound oxidase of phagocytes, substrate preference; generally accepted; cited from earlier work
T1 construct: host or cells: phagocytes / neutrophils (background description)

[1] = tested on: pharyngotosillitis, a herpetic infection of the pharyngeal region; experiment: Example 5: pharyngotonsillitis treated with a mouthwash; type: in vivo, human; settings: mouthwash 0.05% by weight, five applications per day for seven days
Method: A subject suffering from pharyngotosillitis, a herpetic infection of the pharyngeal region is treated with a mouthwash containing the ROM inhibitory compound NADPH oxidase inhibitor […] in a concentration of 0.05% by weight of formulation. The treatment consists of five mouthwash applications per day for a period of seven days. The administration of […] was effective in treating the pharyngotosillitis of the subject.

[2] = tested on: keratoconjunctivitis or a corneal herpes infection; settings: ophthalmic solution 0.09% by weight with ZOVIRAX every three hours, plus solution without ZOVIRAX hourly
Method: A subject presenting keratoconjunctivitis or a corneal herpes infection is treated with the compositions of the present invention using an ophthalmic solution of histamine dihydrochloride at 0.09% by weight of formulation. Commercially available ophthalmic solutions are well known in the art. Additionally, the ophthalmic solution contains ZOVIRAX in an effective concentration. Application of the solution to the eye occurs every three hours. A solution containing only the ROM production and release inhibiting compound is given hourly to ease the discomfort of the subject.

[3] = tested on: herpes zoster or shingles lesions; settings: ointment approx. 0.004% by weight four times a day plus subcutaneous histamine 10 μg/kg once per week
Method: A subject presenting herpes zoster or shingles lesions is treated with the compounds of the present invention in the form of an ointment. […] The ointment is administered topically to shingles lesions four times a day until the lesions completely heal. A subcutaneous injection of histamine at a concentration of 10 μg/kg of the subject is also administered. The injection is given once per week.

psoriasis of the scalp = tested on: psoriasis of the scalp
Method: A subject suffering from psoriasis of the scalp is treated with a shampoo containing approximately 0.008% by weight of histamine dihydrochloride. The subject undergoes UVB treatment in accordance with a protocol well known to those of ordinary skill in the art. In addition, the subject washes their hair once per day with the shampoo containing the ROM production and release inhibitory compound histamine.

eczema = settings: soap approx. 0.1% by weight once daily and lotion approx. 0.0055% by weight up to five times a day
Method: A subject presenting eczema is treated with a lotion and soap containing the ROM production and release inhibitory compound histamine dihydrochloride. The soap contains histamine in a concentration of approximately 0.1% by weight while the lotion contains histamine in a concentration of approximately 0.0055% by weight. The subject bathes with the soap once daily. The affected area is lathered well with the soap, rinsed, and the procedure is repeated. Following the bath, the lotion is applied up to five times throughout the day to the affected area.

chemical burn injuries = settings: water-based gel 0.007% by weight; every 10 minutes first hour, every 30 minutes next three hours, then as needed
Method: The compositions of the present invention are administered topically to a subject presenting chemical burn injuries. A water-based gel preparation containing of 0.007% by weight of the formulation of histamine dihydrochloride was administered to the subject's burn injuries. The treatment consisted of topical application of the gel to the burn site every 10 minutes for the first hour, then every 30 minutes for the next three hours. Topical applications thereafter are applied as needed by the subject in response to pain.

incision of the skin = settings: formulation 0.0045% by weight with vitamin A 2000 IU, vitamin E 5000 IU and a topical antibiotic, twice a day
Method: The compositions of the present invention are administered topically to a subject presenting an incision of the skin. A formulation containing histamine dihydrochloride in a concentration of 0.0045% by weight of the formulation, vitamin A at 2000 IU, vitamin E at 5000 IU, and a topical antibiotic is applied to the wound following proper wound cleansing. Subsequent administration of the formulation occurs twice a day and with each change of wound dressing.

[4] = tested on: chemical peel treated skin; settings: solution 0.008% by weight, soaking five times daily after chemical peel
Description: The solution is applied by soaking the treated five times daily to the treated area.

[5] = tested on: laser facial resurfacing treated skin; settings: bandage with sterile solution 0.008% by weight five times daily, plus sunscreen 0.008% by weight
Description: The bandage containing the sterile solution of histamine dihydrochloride is applied five times daily to the treated area. A sunscreen containing 0.008% by weight of histamine dihydrochloride is also applied before the subject is to be exposed to sunlight.

periodontal disease = settings: mouthwash and toothpaste, each 0.008% by weight, three times daily
Method: A subject presenting periodontal disease is treated with a mouthwash and toothpaste, each containing 0.008% by weight of histamine dihydrochloride. The subject brushes their teeth three times daily with the toothpaste for ten minutes. Following this cleansing, the subject washes their mouth with the mouthwash, rinses with water, and repeats. The treatment continues until the health of the periodontal tissue improves.

herpes labialis [6] = settings: cream with 0.08% by weight, topical four to five times a day; compared to control cream group
Description: Treatment of the subjects consists of the topical application of the medication four to five times a day at the lesion site.

herpes labialis [7] = settings: cream 0.08% by weight five times a day together with ZOVIRAX; compared to ZOVIRAX alone
Method: The ability of the ROM production and release inhibition compounds of the present invention to increase the effectiveness of 9-(2-Hydroxyethoxymethyl)guanine, ZOVIRAX, (GlaxoWellcome) is evaluated in two groups of 10 subjects each. No subjects are suffering from active lesions at the initiation of the study. Group I subjects receive ZOVIRAX according to the dosage given by the manufacturer. […] Application of the cream continues during vesicle formation and until the vesicles have completely healed. Subjects in both groups are instructed to topically apply the product five times a day at the lesion site.
Subjects participating in the study are instructed to monitor the size and duration of the lesions during the herpetic episode.

[8] = tested on: varicella-zoster virus (chicken pox) infection; settings: child; paste 0.02% by weight five times per day and soap 0.1% by weight during bathing
Method: A child presenting the symptoms of chicken pox is treated with the compounds of the present invention. In this example, two products are used to treat the subject. […] The paste is applied five times per day until the vesicles have completely healed.

[9] = tested on: photodermatitis (second degree sunburn); settings: aloe vera based gel such as SOOTH-A-CAINE containing 0.006% by weight
Description: The ROM production and release inhibitory compound serotonin is used in a gel to treat a subject presenting photodermatitis (second degree sunburn) and attendant blister formation. The subject has blister formation as well as deep reddening of the epidermis on the back.

thermal burn injuries = experiment: Example 15: thermal burn injuries treated with a water-based gel; type: in vivo, human; settings: water-based gel 0.007% by weight; every 10 minutes first hour, every 30 minutes next three hours, then as needed
Method: The compositions of the present invention are administered topically to a subject presenting thermal burn injuries. A water-based gel preparation containing of 0.007% by weight of the formulation of serotonin was administered to the subject's burn injuries. The treatment consisted of topical application of the gel to the burn site every 10 minutes for the first hour, then every 30 minutes for the next three hours. Topical applications thereafter are applied as needed by the subject in response to pain.

herpes genitalis = settings: 0.07% by weight foam (vaginal) and cream (external), three times a day for five days
Method: Using an applicator, the foam is injected into the vaginal space to treat herpetic lesions therein. The cream is applied topically to external lesions. The cream and foam are applied three times a day for a period of five days.

herpes labialis [10] = settings: 0.07% by weight lipstick, three times a day for five days
Description: The treatment consists of topical application three times a day for a period of five days.

NC(=O)C1=CN([C@@H]2O[C@H](COP(=O)(O)OP(=O)(O)OC[C@H]3O[C@@H](n4cnc5c(N)ncnc54)[C@H](O)[C@@H]3O)[C@@H](O)[C@H]2O)C=CC1 [NADH]
Km (NADPH oxidase): 450 µM

NC(=O)C1=CN([C@@H]2O[C@H](COP(=O)(O)OP(=O)(O)OC[C@H]3O[C@@H](n4cnc5c(N)ncnc54)[C@H](OP(=O)(O)O)[C@@H]3O)[C@@H](O)[C@H]2O)C=CC1 [NADPH]
Km (NADPH oxidase): 45 µM

c1ccc2c(c1)[I+]c1ccccc1-2 [diphenlyeneiodonium]
effectiveness in treating the pharyngotosillitis [1]: effective

Cl.Cl.NCCc1c[nH]cn1 [histamine dihydrochloride]
damage caused by the viral outbreak [2]: reduces | discomfort of the patient [2]: reduces the discomfort of the patient | time period of viral activity [2]: reduces the time period of viral activity | time required for the healing of the herpetic lesions [3]: reduces the time required for the healing | rate of reduction in symptoms (psoriasis of the scalp; shampoo approx. 0.008% by weight once per day with UVB, compared to UVB treatment alone): reduction in symptoms at a greater rate | irritation of the affected area (psoriasis of the scalp; shampoo approx. 0.008% by weight once per day, with UVB treatment): reduces the irritation of the affected area | general condition of the skin in the affected area (eczema): increase in the general condition of the skin | symptoms of eczema (eczema): decrease in the symptoms | discomfort of the subject (chemical burn injuries): reduces the discomfort | healing of the burn injuries (chemical burn injuries): promotes healing | healing of the incision (incision of the skin): promotes healing of the incision | scar formation (incision of the skin): reduces scar formation | rate of healing [4]: rate of healing is increased | rate of healing [5]: rate of healing is increased | rate of healing (periodontal disease): rate of healing is increased | healing time of herpetic lesions (herpes labialis [6]): decrease in healing time | size of the herpetic lesions forming during the outbreak period (herpes labialis [7]): decrease in the size of the herpetic lesions | healing of vesicles [8]: causes the vesicles to heal rapidly | level of discomfort experienced by the subject [8]: decreases the level of discomfort

NCCc1c[nH]cn1 [histamine]
blistering and amount of skin sloughed off as a result of the irradiation [9]: decrease in blistering and the amount of skin sloughed off | discomfort in the subject [9]: reduction of discomfort

NCCc1c[nH]c2ccc(O)cc12 [serotonin]
discomfort of the subject (thermal burn injuries): reduces the discomfort | healing of the burn injuries (thermal burn injuries): promotes healing

histamine diphosphate
healing time of the ruptured herpetic vesicles (herpes genitalis): reduced the healing time | healing time of the ruptured herpetic vesicles (herpes labialis [10]): reduced the healing time
